Data taken from publication PMC3902791 (Molecular imaging and biology : MIB : the official …, 2012).
“Also recorded” adds a separate entry of the source.

Tested on: rhesus macaques
Assay: Hematology and blood chemistry before and after PET imaging
Assay type: in vivo

O=C(O)C[18F] [^18F-FACE, ^18F-fluoroacetate]
ALP (After 1–3 months): 134.0±58.2 IU/L | ALT (After 1–3 months): 30.5±8.5 IU/L | AST (After 1–3 months): 28.7±3.4 IU/L | Albumin (After 1–3 months): 3.4 ± 0.8 g/dL | BUN (After 1–3 months): 17.9 ± 4.9 mg/dL | Hb (After 1–3 months): 13.4 ± 0.4 g/dL | Hct (After 1–3 months): 42.4±2.0 % | Plt (After 1–3 months): 303.0±118.8 ×10^6/mL | RBC (After 1–3 months): 5.7±0.1 ×10^6/mL | Total bilirubin (After 1–3 months): 0.2 ± 0.1 mg/dL | Total protein (After 1–3 months): 6.1 ± 0.9 g/dL | WBC (After 1–3 months): 4.8±0.5 ×10^3/mL | ALP (After imaging): 169.4±61.3 IU/L | ALT (After imaging): 34.2±12.2 IU/L | AST (After imaging): 29.0±5.6 IU/L | Albumin (After imaging): 3.9 ± 0.8 g/dL | BUN (After imaging): 17.9 ± 4.6 mg/dL | Hb (After imaging): 13.1 ± 1.2 g/dL | Hct (After imaging): 41.4±2.5 % | Plt (After imaging): 328.1±54.2 ×10^6/mL | RBC (After imaging): 5.7±0.6 ×10^6/mL | Total bilirubin (After imaging): 0.3 ± 0.1 mg/dL | Total protein (After imaging): 7.0 ± 0.5 g/dL | WBC (After imaging): 6.8± 1.1 ×10^3/mL | changes in CBC, blood chemistry, liver enzymes, renal function (before vs after 3 h and 1–3 months): no statistically significant changes; also recorded: no significant changes in CBC, liver enzymes, or renal function
